# Laboratory results taken from patent US10647708B2, “Tetrahydroisoquinoline derived PRMT5-inhibitors” (CTXT PTY LTD, priority 2014, dated 2020).
# Test system: symmetrical dimethylation of arginine (Histone H4 Arginine 3) in cell line TE11
# Experiment: Revised PRMT5 Biomarker Assay
# Assay type: cell-based
# Conditions: Homo sapiens, TE-11; TE11 cells, 72 hours incubation, anti-Di-Methyl Histone H4 Arginine 3 immunofluorescence, plate-reader based
# Description: Compounds of the invention may be tested for potency to inhibit symmetrical dimethylation of arginine in the following assay:
# The cell line TE11 was seeded at a density of 6,000 cells per well in 96 well optical quality tissue culture plates in DME medium and 10% foetal bovine serum, and allowed to adhere for 5 hours under standard culture conditions (37 degree Celsius, 5% CO2). Compound dilutions prepared in DMSO were added to the medium, with negative control wells reserved for treatment with DMSO only and positive controls receiving a potent PRMT5 inhibitor compound at 1 μM concentration. After incubation for 72 hours, the cells were fixed with 3.7% formaldehyde in PBS for 30 minutes at room temperature, washed with phosphate buffer saline and blocked with Odyssey blocking buffer (LI-COR, Lincoln, Nebr.). Rabbit anti-Di-Methyl Histone H4 Arginine 3 specific antibody (Epigentek) in Odyssey blocking buffer was added and incubated for 14 hours at 4 degree Celsius. After washing, anti-rabbit secondary antibody labelled with Alexa647 dye (LifeTechnologies) and Hoechst 33342 (1 μg/mL, SigmaAldrich) were added for 1 hour incubation. Plates were washed and read on a PerkinElmer Envision 2103 in fluorescence intensity scanning mode (24 scans across the well area). The methylation level information was corrected for the number of cells as expressed by the Hoechst 33342 stain, converted to percent inhibition relative to controls on the same plate and the data fitted against a four-parameter logistic model to determine the 50% inhibitory concentration (IC50 plate-reader based). Alternatively, the plates were imaged on a PerkinElmer Phenix high content imaging platform. Using a Columbus image analysis pipeline, individual nuclei were located by Hoechst 33342 stain and the methylation level was calculated from the Alexa647-related intensity in the same area. The resulting mean intensity per cell was directly converted to percent inhibition as outlined above (IC50, imager based)).
row,IC50 [µM],Structure (SMILES)
1,0.089,O=C(NCCC(O)CN1CCc2ccccc2C1)c1ccc(OC(F)(F)F)cc1 (stereo not shown) [Compound 19]
2,0.505,O=C(NCCC(O)CN1CCc2ccccc2C1)c1ccc(S(F)(F)(F)(F)F)cc1 (stereo not shown) [Compound 20]
3,0.023,Cc1nn(C)cc1-c1cc(C(=O)NCCC(O)CN2CCc3ccccc3C2)no1 (stereo not shown) [Compound 36]
4,0.048,O=C(NCCC(O)CN1CCc2ccccc2C1)c1ccc(-c2ccccc2)cc1 (stereo not shown) [Compound 40]

# Same assay, conditions: TE11 cells, 72 hours incubation, anti-Di-Methyl Histone H4 Arginine 3 immunofluorescence, plate-reader based
row,IC50 [µM],Structure (SMILES)
1,0.007,CC(=O)N1CCC(Nc2cc(C(=O)NCCC(O)CN3CCc4ccccc4C3)ccn2)CC1 (stereo not shown) [Compound 46]

# Target: Full-length PRMT5 enzyme co-expressed with MEP50 (Homo sapiens (Human), UniProt O14744)
# Experiment: Revised PRMT5 Biochemical Assay
# Conditions: 1 μM peptide substrate, 1 μM S-Adenosyl methionine, 4 hours at 37 degree Celsius, Transcreener EPIGEN fluorescence polarisation
# Description: Compounds of the invention may be tested for in vitro activity in the following assay: A histone H4 derived peptide is used as substrate (amino acid sequence: […]NH2). Full-length PRMT5 enzyme (NCBI Reference sequence NP_006100.2) was co-expressed with Hiss-MEP50 in insect cells and purified via Nickel immobilized metal affinity and gel filtration chromatography (“the enzyme”).
# The 6 μL reactions are run in Greiner brand black 384-well low volume assay plates. All reactions contained assay buffer (phosphate buffered saline, 0.01% (v/v) Tween-20, 0.01% (w/v) albumin from chicken egg white, 1 mM Dithiothreitol, 1 μM peptide substrate, 1 μM S-Adenosyl methionine, and 15 ng/reaction enzyme, with the enzyme being omitted from negative control reactions. Compounds were added in a volume of 100 nL from dilution series prepared in DMSO, positive and negative control reactions receiving the same volume DMSO without compound. The plates were sealed with adhesive seals and incubated for 4 hours at 37 degree Celsius. Reaction progress was measured using the Transcreener™ EPIGEN methyltransferase assay (BellBrook Labs, Madison, Wis.) as recommended by the manufacturer. To each reaction 2 μL detection mix were added, containing coupling enzymes, fluorescence polarisation tracer, and AMP antibody. Plates were incubated for 90 minutes before being read on a PerkinElmer EnVision™ plate reader in fluorescence polarisation mode. IC50 values were obtained from the raw readings by calculating percent inhibition (% I) for each reaction relative to controls on the same plate (% I=(I−CN)/(CP−CN) where CN/CP are the averages of the negative/positive reactions, respectively), then fitting the % I data vs. compound concentration [I] to % I=(A+((B−A)/(1+((C/[I])^D)))) where A is the lower asymptote, B is the upper asymptote, C is the IC50 value, and D is the slope.
# Full-length PRMT5 enzyme co-expressed with MEP50, sequence (O14744 whole entry): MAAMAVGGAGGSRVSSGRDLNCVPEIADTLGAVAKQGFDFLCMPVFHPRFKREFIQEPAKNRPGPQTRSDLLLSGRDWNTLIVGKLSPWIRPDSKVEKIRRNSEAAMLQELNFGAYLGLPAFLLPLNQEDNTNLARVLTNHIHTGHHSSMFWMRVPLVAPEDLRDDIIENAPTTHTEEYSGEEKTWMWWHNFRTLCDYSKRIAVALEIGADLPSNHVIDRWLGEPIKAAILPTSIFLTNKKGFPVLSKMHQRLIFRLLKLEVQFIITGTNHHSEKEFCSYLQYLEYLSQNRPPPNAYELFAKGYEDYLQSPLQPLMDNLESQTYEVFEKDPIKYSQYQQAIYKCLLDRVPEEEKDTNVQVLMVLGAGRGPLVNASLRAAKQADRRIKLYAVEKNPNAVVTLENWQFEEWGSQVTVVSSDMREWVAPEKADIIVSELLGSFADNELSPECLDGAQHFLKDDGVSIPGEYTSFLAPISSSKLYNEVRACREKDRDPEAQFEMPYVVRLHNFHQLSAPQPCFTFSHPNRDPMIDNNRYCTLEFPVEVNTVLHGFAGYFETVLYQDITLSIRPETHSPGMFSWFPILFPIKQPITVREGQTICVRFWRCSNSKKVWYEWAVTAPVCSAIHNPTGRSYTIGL
# Full-length PRMT5 enzyme co-expressed with MEP50, sequence (Q9BQA1 whole entry partner): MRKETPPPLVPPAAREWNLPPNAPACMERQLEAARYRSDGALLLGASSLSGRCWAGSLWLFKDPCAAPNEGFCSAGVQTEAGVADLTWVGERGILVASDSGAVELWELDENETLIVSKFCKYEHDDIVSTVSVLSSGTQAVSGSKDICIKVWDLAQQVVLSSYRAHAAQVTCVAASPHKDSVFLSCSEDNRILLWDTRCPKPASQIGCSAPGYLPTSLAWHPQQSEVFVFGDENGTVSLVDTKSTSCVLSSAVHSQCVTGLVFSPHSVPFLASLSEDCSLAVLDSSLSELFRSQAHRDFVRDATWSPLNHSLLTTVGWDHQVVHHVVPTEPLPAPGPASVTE
row,IC50 [µM],Structure (SMILES)
1,1.13,O=C(NCCC(O)CN1CCc2ccccc2C1)c1ccc(S(=O)(=O)C(F)(F)F)cc1 (stereo not shown) [Compound 2]
2,0.925,O=C(NCCC(O)CN1CCc2ccccc2C1)c1ccc([S+]([O-])C(F)(F)F)cc1 (stereo not shown) [Compound 3]
3,51.7,CS(=O)(=O)c1ccccc1OCC(=O)NCCC(O)CN1CCc2ccccc2C1 (stereo not shown) [Compound 4]
4,1.33,O=C(NCCC(O)CN1CCc2ccccc2C1)c1ccc(C(F)(F)F)cc1 (stereo not shown) [Compound 5]
5,13.1,O=C(NCCC(O)CN1CCc2ccccc2C1)c1ccc(N2CCCCC2=O)cc1 (stereo not shown) [Compound 6]
6,1.94,COc1ccc(-n2cc(C(=O)NCCC(O)CN3CCc4ccccc4C3)cn2)cc1 (stereo not shown) [Compound 7]
7,3.09,COc1ccc(-c2cc(C(=O)NCCC(O)CN3CCc4ccccc4C3)on2)cc1 (stereo not shown) [Compound 8]
8,4.35,O=C(NCCC(O)CN1CCc2ccccc2C1)c1ccc2oc(=O)[nH]c2c1 (stereo not shown) [Compound 9]
9,3.98,Cc1nonc1COc1ccc(C(=O)NCCC(O)CN2CCc3ccccc3C2)cc1 (stereo not shown) [Compound 10]
10,39.2,O=C(NCCC(O)CN1CCc2ccccc2C1)c1nnc(-c2ccccc2)o1 (stereo not shown) [Compound 11]
11,1.59,O=C(NCCC(O)CN1CCc2ccccc2C1)c1ccn(Cc2ccccc2)c(=O)c1 (stereo not shown) [Compound 12]
12,7.09,Cc1c(C(=O)NCCC(O)CN2CCc3ccccc3C2)cnn1-c1ccncc1 (stereo not shown) [Compound 13]
13,0.91,O=C(NCCC(O)CN1CCc2ccccc2C1)c1ccc(N2CCOCC2)nc1 (stereo not shown) [Compound 14]
14,13,N#Cc1cccc(C(=O)NCCC(O)CN2CCc3ccccc3C2)c1 (stereo not shown) [Compound 16]
15,15,O=C(NCCC(O)CN1CCc2ccccc2C1)c1cccnc1 (stereo not shown) [Compound 17]
16,9.79,O=C(NCCC(O)CN1CCc2ccccc2C1)c1cccc(Cl)c1 (stereo not shown) [Compound 18]
17,0.319,O=C(NCCC(O)CN1CCc2ccccc2C1)c1ccc(OC(F)(F)F)cc1 (stereo not shown) [Compound 19]
18,0.214,O=C(NCCC(O)CN1CCc2ccccc2C1)c1ccc(S(F)(F)(F)(F)F)cc1 (stereo not shown) [Compound 20]
19,0.415,O=C(NCCC(O)CN1CCc2ccccc2C1)c1ccc(OC(F)F)cc1 (stereo not shown) [Compound 21]
20,7.02,CS(=O)(=O)c1ccc(C(=O)NCCC(O)CN2CCc3ccccc3C2)cc1 (stereo not shown) [Compound 22]
21,1.69,O=C(NCCC(O)CN1CCc2ccccc2C1)c1ccc2c(c1)OC(F)(F)O2 (stereo not shown) [Compound 23]
22,25.4,Cc1cccc(C(=O)NCCC(O)CN2CCc3ccccc3C2)n1 (stereo not shown) [Compound 24]

row,IC50 [µM],Structure (SMILES)
1,6.35,O=C(NCCC(O)CN1CCc2ccccc2C1)c1cccc(-c2ccnnc2)c1 (stereo not shown) [Compound 25]
2,3.75,C[S+]([O-])c1ccc(C(=O)NCCC(O)CN2CCc3ccccc3C2)cc1 (stereo not shown) [Compound 26]
3,5.62,COc1ccc(C(=O)NCCC(O)CN2CCc3ccccc3C2)cc1-c1cncnc1 (stereo not shown) [Compound 27]
4,12.3,O=C(NCCC(O)CN1CCc2ccccc2C1)c1cnn(-c2ccccn2)c1 (stereo not shown) [Compound 28]
5,10.8,Cn1ccc(C(=O)NCCC(O)CN2CCc3ccccc3C2)cc1=O (stereo not shown) [Compound 29]
6,3.12,O=C(NCCC(O)CN1CCc2ccccc2C1)c1ccc(C(=O)N2CCCC2)cc1 (stereo not shown) [Compound 30]
7,3.16,O=C(NCCC(O)CN1CCc2ccccc2C1)c1ccc(C(=O)N2CCC2)cc1 (stereo not shown) [Compound 31]
8,3.54,CN(C)C(=O)c1ccc(C(=O)NCCC(O)CN2CCc3ccccc3C2)cc1 (stereo not shown) [Compound 32]
9,7.45,Cc1c(C(=O)NCCC(O)CN2CCc3ccccc3C2)cnn1-c1ccccn1 (stereo not shown) [Compound 33]
10,56.1,O=C(NCCC(O)CN1CCc2ccccc2C1)c1noc(-c2ccccc2)n1 (stereo not shown) [Compound 34]
11,1.21,O=C(NCCC(O)CN1CCc2ccccc2C1)c1coc(-c2ccccc2)n1 (stereo not shown) [Compound 35]
12,1.2,Cc1nn(C)cc1-c1cc(C(=O)NCCC(O)CN2CCc3ccccc3C2)no1 (stereo not shown) [Compound 36]
13,1.19,Cn1cc(-c2cc(C(=O)NCCC(O)CN3CCc4ccccc4C3)no2)cn1 (stereo not shown) [Compound 37]
14,2.88,O=C(NCCC(O)CN1CCc2ccccc2C1)c1ccnn1-c1cccnc1 (stereo not shown) [Compound 38]
15,1.22,Cc1nnc(-c2cccc(C(=O)NCCC(O)CN3CCc4ccccc4C3)c2)o1 (stereo not shown) [Compound 39]
16,0.769,O=C(NCCC(O)CN1CCc2ccccc2C1)c1ccc(-c2ccccc2)cc1 (stereo not shown) [Compound 40]
17,5.29,O=C(NCCC(O)CN1CCc2ccccc2C1)c1cccc(-c2ccccc2)c1 (stereo not shown) [Compound 41]
18,2.83,Cc1nnc(-c2ccc(C(=O)NCCC(O)CN3CCc4ccccc4C3)cc2)o1 (stereo not shown) [Compound 42]
19,106,O=C(NCCC(O)CN1CCc2ccccc2C1)c1cncc(Cl)n1 (stereo not shown) [Compound 43]
20,13.7,"O=C(NCCC(O)CN1CCc2ccccc2C1)c1ccnc(Cl)c1 (stereo not shown) [Compound 44, 2-Chloro-N-(4-(3,4-dihydroisoquinolin-2(1H)-yl)-3-hydroxybutyl)isonicotinamide]"
21,5.23,"O=C(NCCC(O)CN1CCc2ccccc2C1)c1cccc(C(=O)N2CCOCC2)c1 (stereo not shown) [Compound 45, N-(4-(3,4-dihydroisoquinolin-2(1H)-yl)-3-hydroxybutyl)-3-(morpholine-4-carbonyl)benzamide]"
22,0.186,CC(=O)N1CCC(Nc2cc(C(=O)NCCC(O)CN3CCc4ccccc4C3)ccn2)CC1 (stereo not shown) [Compound 46]
